According to US8124784B2, “Palladium metal complex” (Nagasaki University, priority 2008, dated 2012):

Experiment: Solubility of the metal complex A in organic solvents
Assay type: physicochemical
Experimental: The solubility of the metal complex A in organic solvents was tested.

solubility in organic solvent (acetone): insoluble
solubility in organic solvent (acetonitrile): insoluble
solubility in organic solvent (benzene): slightly soluble
solubility in organic solvent (chloroform): soluble
solubility in organic solvent (diethyl ether): insoluble
solubility in organic solvent (ethanol): insoluble
solubility in organic solvent (hexane): insoluble
solubility in organic solvent (methanol): insoluble
solubility in organic solvent (methylene chloride): soluble
solubility in organic solvent (toluene): slightly soluble
Substance: [Pd2Au2Cl2(μ-dmpz)4(dmpzH)2] [metal complex A]
